The text below walks through data of patent publication US8859549B2, “Potassium channel modulators” (AbbVie, Inc., priority 2011, dated 2014).

The experiment addresses T1, KCNQ 2/3 channels (Homo sapiens, UniProt O43525+O43526).
T1 construct: expressed in transfected cells; host or cells: HEK293
The experiment can be described thus: KCNQ 2/3 channel activation, thallium flux FLIPR assay (BTC-AM dye). Type of experiment: cell-based. The settings on record: for Emax: HEK293, maximum response relative to the response of 10 μM retigabine (set at 100%), read-out: % MAX; for pEC50: HEK293 cells stably expressing human KCNQ2 and KCNQ3 subunits, thallium-induced fluorescence, 4 min compound incubation. The gist of the method: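 HEK293 cells stably expressing human KCNQ2/KCNQ3 were loaded with BTC-AM (3 μg/mL, 2 h, RT) and preincubated with compound for 4 min in pH 7.3 gluconate buffer containing 0.1 mM ouabain. Flux was triggered by 6 mM TlNO3/10 mM K2SO4 and read for 3 min; EC50 came from summed responses over basal, with maximum relative to 10 μM retigabine (100%).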

pEC50: −log10 of the molar value.

In general, pEC50 refers to the negative decadic logarithm of the EC50, by convention in mol/L. Higher therefore signals a low EC50. Turning to `O=C(CC(F)(F)F)Nn1nc(N2CCOCC2)c2ccccc2c1=O` [Example 136, 3,3,3-trifluoro-N-[4-(morpholin-4-yl)-1-oxophthalazin-2(1H)-yl]propanamide], the pEC50 was 5.21. The Emax (HEK293 KCNQ2/KCNQ3 cells) is 49.1%.
As to `O=C(Cc1ccc(Cl)cc1)Nn1nc(CNC(=O)OCc2ccccc2)c2ccccc2c1=O` [Example 188, benzyl[(3-{[(4-chlorophenyl)acetyl]amino}-4-oxo-3,4-dihydrophthalazin-1-yl)methyl]carbamate], the Emax (HEK293 KCNQ2/KCNQ3 cells) amounted to 15.3%.
On the same count and under the same terms, to `CCOC(=O)C(NC(=O)Cc1ccc(Cl)cc1)c1nn(NC(=O)Cc2ccc(Cl)cc2)c(=O)c2ccccc12` (stereo not drawn) [Example 117, ethyl{[(4-chlorophenyl)acetyl]amino}(3-{[(4-chlorophenyl)acetyl]amino}-4-oxo-3,4-dihydrophthalazin-1-yl)acetate] belongs 26.2%.
For `CC1CN(c2nn(NC(=O)CC3CC4CCC3C4)c(=O)c3ccccc23)CC(C)O1` (racemic) [Example 64, (±)-2-[(exo)-bicyclo[2.2.1]hept-2-yl]-N-[4-(2,6-dimethylmorpholin-4-yl)-1-oxophthalazin-2(1H)-yl]acetamide], the pEC50 was 7.04. Further, the “% MAX” value (maximum response relative to the response of 10 μM retigabine (set at 100%), HEK293 KCNQ2/KCNQ3 cells) is recorded as 144%.
With `CCOC(=O)Cc1nn(NC(=O)Cc2ccc(Cl)cc2)c(=O)c2ccccc12` [Example 116, ethyl(3-{[(4-chlorophenyl)acetyl]amino}-4-oxo-3,4-dihydrophthalazin-1-yl)acetate], the pEC50 is 5.12. For the same compound, the Emax (HEK293 KCNQ2/KCNQ3 cells) was found to be 61.4%.
For `CC(C)(CC(=O)Nn1nc(-c2ccnc(Cl)c2)c2ccccc2c1=O)c1ccccc1` [Example 48, N-[4-(2-chloropyridin-4-yl)-1-oxophthalazin-2(1H)-yl]-3-methyl-3-phenylbutanamide] the same measures were 6.41 and 133%.
On to `O=C(CC1CC2CCC1C2)Nn1nc(-c2ccccn2)c2ccccc2c1=O` (racemic) [Example 19, (±)-2-[(exo)-bicyclo[2.2.1]hept-2-yl]-N-[1-oxo-4-(pyridin-2-yl)phthalazin-2(1H)-yl]acetamide], for which the negative logarithm of the EC50 (pEC50) was 6.77. For the setting “HEK293 KCNQ2/KCNQ3 cells”, the Emax stood at 146%.
On to `CC(C)(C)OC(=O)NCc1nn(NC(=O)CC2CC3CCC2C3)c(=O)c2ccccc12` (racemic) [Example 44, (±)-tert-butyl[(3-{[(exo)-bicyclo[2.2.1]hept-2-ylacetyl]amino}-4-oxo-3,4-dihydrophthalazin-1-yl)methyl]carbamate], for which the pEC50 was 6.53. Moreover, the Emax (HEK293 KCNQ2/KCNQ3 cells) stood at 116%.
On to `O=C(Cc1ccc2c(c1)OCO2)Nn1nc(N2CCOCC2)c2ccccc2c1=O` [Example 174, 2-(1,3-benzodioxol-5-yl)-N-[4-(morpholin-4-yl)-1-oxophthalazin-2(1H)-yl]acetamide], for which the Emax (HEK293 KCNQ2/KCNQ3 cells) was determined as 18.7%.
Consider `O=C(CC1CC2CCC1C2)Nn1nc(-c2ccnc(Cl)c2)c2ccccc2c1=O` (racemic) [Example 29, (±)-2-[(exo)-bicyclo[2.2.1]hept-2-yl]-N-[4-(2-chloropyridin-4-yl)-1-oxophthalazin-2(1H)-yl]acetamide], for which the negative logarithm of the EC50 (pEC50) is 7.17. Besides, the Emax (HEK293 KCNQ2/KCNQ3 cells) came to 137%.
Regarding `CN1CCN(c2nn(NC(=O)Cc3ccc(Cl)cc3)c(=O)c3ccccc23)CC1` [Example 107, 2-(4-chlorophenyl)-N-[4-(4-methylpiperazin-1-yl)-1-oxophthalazin-2(1H)-yl]acetamide], under “HEK293 KCNQ2/KCNQ3 cells”, the Emax stood at 24.3%.
In the case of `CS(=O)(=O)c1ccc(CC(=O)Nn2nc(Sc3ccccc3)c3ccccc3c2=O)cc1` [Example 181, 2-[4-(methylsulfonyl)phenyl]-N-[1-oxo-4-(phenylsulfanyl)phthalazin-2(1H)-yl]acetamide], the negative logarithm of the EC50 (pEC50) was 5.29. Moreover, the Emax (HEK293 KCNQ2/KCNQ3 cells) is 92.6%.
Take `COc1cccc(CC(=O)Nn2nc(N3CCOCC3)c3ccccc3c2=O)c1` [Example 146, 2-(3-methoxyphenyl)-N-[4-(morpholin-4-yl)-1-oxophthalazin-2(1H)-yl]acetamide]: where the note is “HEK293 KCNQ2/KCNQ3 cells”, the Emax was determined as 17.6%.
